Source: ChEMBL document CHEMBL1126370, “Neuropeptide Y (NPY) functional group mimetics: design, synthesis, and characterization as NPY receptor antagonists” (Bioorg Med Chem Lett, 1992)

Legend:
[1] = Percent maximum displacement of the [3H]NPY by the compound in the rat brain membrane was evaluated; assay type: cell membranes
[2] = Inhibition constant to displace [3H]-NPY from rat brain membrane after treatment with 500 evaluated; assay type: tissue-based
[3] = The receptor binding activity was evaluated as the displacement of specifically bound [3H]-NPY from male Sprague-Dawley rat brain membrane homogenates; assay type: tissue-based
[4] = species on record: Rattus norvegicus; experiment: Inhibitory concentration was evaluated against the vasoconstriction induced by NPY in the rat femoral artery ring; assay type: functional
[5] = The receptor binding activity as the displacement of specifically bound [3H]-NPY from male Sprague-Dawley rat brain membrane homogenates; assay type: tissue-based

Max displacement [1] [%] | Ki [2] [µM] | IC50 [3] [µM] | IC50 [4] [µM] | IC50 [5] [µM] | Compound
100 | 35.5 | 45.4 | 2.86 |  | N/C(=N\CCNC(=O)C(N)Cc1ccc(OCc2c(Cl)cccc2Cl)cc1)NCCCCCCN/C(N)=N/CCNC(=O)C(N)Cc1ccc(OCc2c(Cl)cccc2Cl)cc1 (stereo not given)
63 |  | 18.5 | 0.414 |  | N/C(=N\CCNC(=O)C(N)Cc1ccc(OCc2c(Cl)cccc2Cl)cc1)NCCSSCCN/C(N)=N/CCNC(=O)C(N)Cc1ccc(OCc2c(Cl)cccc2Cl)cc1 (stereo not given)
61 |  |  | 0.0431 | 56 | COc1ccccc1CNCCCCCCNCCSSCCNCCCCCCNCc1ccccc1OC [BENEXTRAMINE]
